Source: US20120225118A1, “COMPOSITIONS FOR DELIVERY OF INSOLUBLE AGENTS” (Latitude Pharmaceuticals Incorporated, priority 2009, published 2012)
Converted amounts (≈) assume the structure as drawn. Read-outs that look alike come from different tables or passages of the source.

Experiments:
[1] = 25° C., cited from earlier work
[2] = Solubility in aqueous 0.2% SDS; format: physicochemical; conditions: 37 °C, aqueous with cosolvent or surfactant or cyclodextrin, thermodynamic from solid
Description: About 5.5 mg itraconazole or an amount of the preparations obtained according to Example 3 containing 5.5 mg itraconazole was placed in 500 mL aqueous solution of 0.2% SDS. The mixture was stirred at 37° C. for 24 hours. About 5 mL of the solution was taken and filtered through a 0.45 μm filter. The filtrate was analyzed by HPLC for concentration of itraconazole.

| SMILES | volume of solvent required to dissolve 1 gram ([1]; ethanol) [mL] | volume of solvent required to dissolve 1 gram ([1]; water) [mL] | solubility at 24 h [2] [µg/mL] |
| --- | --- | --- | --- |
| CC(=O)Oc1ccccc1C(=O)O [aspirin] | 5 | 300 | – |
| CCC(C)n1ncn(-c2ccc(N3CCN(c4ccc(OCC5COC(Cn6cncn6)(c6ccc(Cl)cc6Cl)O5)cc4)CC3)cc2)c1=O (stereo not drawn) [itraconazole] | – | – | 6.44 ± 0.08 (≈ 9.13 µM) |
